Entries after “also recorded” stand apart in the source; their conditions may differ. Like-named read-outs stand apart in the source and are kept apart here.
Key:
MPC and MTT cells = test: Viability assay (colorimetric tetrazolium dye); type: cell-based, mouse; conditions: MPC and MTT cells (similar); three days after treatment start; two treatments at 24 h interval
Method: Viability of cells seeded into collagen-coated 96-well microplates (6×10^4/cm^2) was measured three days after treatment start using a colorimetric tetrazolium dye assay [39]. Doxorubicin served as positive control.

SSTR2 = molecular target: T1, SSTR2 (Mus musculus, UniProt P30875); test: [68Ga]Ga-DOTA-TATE radioligand uptake in cells; type: cell-based; conditions: MPC cells; 37 °C; VPA 10^-3 mol/L; DAC 5×10^-7 mol/L; attributed to cytotoxic effects
T1 construct: endogenous in cells; host or cells: MPC and MTT mouse pheochromocytoma cells (cell homogenates), untreated or treated with VPA + DAC
Method: Cells were seeded into collagen-coated microplates or collagen-coated flasks 24 h before epigenetic treatment (ET) start and treated twice (24 h interval) with VPA and DAC, as single and combination doses, respectively. Treatment effects were investigated two to six days (d) after final ET. Preparation of epigenetic drugs is reported in Supplemental Information 1.1.
Radionuclide production and supply are described in Supplemental Information 1.2.
Cells were seeded into collagen-coated 24-well microplates (2.5×10^4/cm^2) and uptake of [^68Ga]Ga-DOTA-TATE was measured three and seven days after ET start. Cells were incubated with fresh cell culture medium containing 0.8 MBq/mL [^68Ga]Ga-DOTA-TATE (Am = 10 MBq/nmol), equivalent to 80 nmol/L, for 60 min at 4 °C or 37 °C. Cells were washed and lysed, and activity of cell lysates was measured as described previously. Total protein in cell lysates was measured using the Qubit protein assay (Thermo Fisher Scientific). Uptake of [^68Ga]Ga-DOTA-TATE was reported as % initial dose per mg of protein.

MPC tumors = type: in vivo, mouse; conditions: MPC
Method: During anesthesia, animals were continuously warmed at 37°C. […] Animals were sacrificed using CO2 inhalation and cervical dislocation.
107 (30%), muscle (0%), kidneys (25%), and liver (35%).
116 attenuation. Images were post-processed and analyzed using ROVER (ABX). Three-
118 kidneys (15%), and liver (25%). […]

MTT tumors = conditions: for SUVmean tumor / SUVmax ratio tumor / muscle / SUVmax tumor / SUVmean ratio tumor / muscle: MTT
Method: All animal experiments were carried out according to the guidelines of the German Regulations for Animal Welfare and have been approved by the local Ethical Committee for Animal Experiments. A number of 4×10^6 MPC or MTT cells were re-suspended in 40 µL of Dulbecco's phosphate-buffered saline and injected subcutaneously into the shoulder of 10-15 week-old female nude mice (Rj:NMRI-Foxn1^nu/nu, Janvier Labs, Le Genest-Saint-Isle, France). Prior to imaging procedures, general anesthesia was induced and maintained with inhalation of 10% (v/v) desflurane in 30/10% (v/v) oxygen/air. During anesthesia, animals were continuously warmed at 37°C. Tumor growth was monitored three times per week using caliper measurements. Tumor volume was calculated assuming a tri-axial ellipsoid with the axes a, b, and c using the formula V = π/6×abc. Animals were sacrificed using CO2 inhalation and cervical dislocation.
Preparation of epigenetic drugs is described in Supplemental Information 1.1. Animals received VPA (1.7×10^‒3 mol/kg ≈ 250 mg/kg), DAC ([…] ≈ 1 mg/kg), or a combination of both, in Dulbecco's phosphate buffered saline (200 µL/30 g body weight), delivered as two consecutive intraperitoneal injections in a 72 h-interval. Applied doses were within the epigenetically effective dose range in mice, as reported elsewhere, [41]-[43]. The estimated human equivalent doses corresponded to 20‒30% of the clinically applied tumor-suppressive doses in patients, [45]. Animals in control groups received Dulbecco's phosphate buffered saline only. Multiple independent experiments were performed, always including animals of all treatment groups (Table 1).
Small animal positron emission tomography (PET) was performed using the nanoPET/CT scanner (Mediso Medical Imaging Systems, Budapest, Hungary). […] Recording, binning, framing, and image reconstruction were performed as reported previously. Dynamic imaging was performed for 60 min, static imaging between 40‒60 min after radiotracer injection. With each PET scan, a corresponding CT image was recorded and used for anatomical referencing and attenuation correction. […] Standardized uptake values (SUV) were determined and reported as SUVmean (VOI-averaged) and SUVmax (VOI-maximum). Details on quantitative PET image analysis are provided in Supplemental Information 1.4.
106 (VOIs) were created (40‒60 min frames) applying fixed thresholds for delineation of tumor
107 (30%), muscle (0%), kidneys (25%), and liver (35%). […]

T1 sequence (P30875 whole entry): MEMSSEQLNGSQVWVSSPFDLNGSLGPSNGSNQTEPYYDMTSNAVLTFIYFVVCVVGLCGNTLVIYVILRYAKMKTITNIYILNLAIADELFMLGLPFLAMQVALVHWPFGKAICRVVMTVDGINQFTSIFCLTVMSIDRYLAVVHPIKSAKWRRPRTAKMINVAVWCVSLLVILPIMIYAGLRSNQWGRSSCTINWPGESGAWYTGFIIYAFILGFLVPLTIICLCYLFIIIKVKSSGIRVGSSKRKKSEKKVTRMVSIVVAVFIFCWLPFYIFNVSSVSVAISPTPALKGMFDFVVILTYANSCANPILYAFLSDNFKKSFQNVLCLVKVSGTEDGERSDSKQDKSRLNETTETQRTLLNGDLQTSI

With `CCCC(CCC)C(=O)O` [VPA, valproic acid] as the compound, how does the LD50 (MPC and MTT cells) read?
Its LD50 is 0.0013 mol/L.

And the “[68Ga]Ga-DOTA-TATE uptake (effect)” value (SSTR2)?
Its value is “impairment of [68Ga]Ga-DOTA-TATE uptake; also recorded: reduced radiotracer uptake at 37 °C”.

What about the SUVmean tumor (MPC tumors; [64Cu]Cu-DOTA-TATE, 40‒60 min p.i., day 1 after final ET, control or VPA 250 mg/kg, DAC 1 mg/kg days −3 and 0, mean ± SEM) of the same compound?
The SUVmean tumor was 6.91 ± 1.19.

What about the “SUVmax ratio tumor / muscle” value (MPC tumors; animal 1, 40‒60 min p.i.) of the same compound?
The value was 33.0.

And the SUVmax tumor (MPC tumors; animal 1, 40‒60 min p.i.)?
Its SUVmax tumor is 8.80.

And the “SUVmean ratio tumor / muscle” value (MPC tumors; animal 1, 40‒60 min p.i.)?
The value was 60.0.

And the SUVmean tumor (MPC tumors; animal 1, 40‒60 min p.i.)?
The SUVmean tumor was 4.22.

What about the “SUVmax ratio tumor / muscle” value (MPC tumors; animal 2, 40‒60 min p.i.) of the same compound?
Its value is 60.8.

And the SUVmax tumor (MPC tumors; animal 2, 40‒60 min p.i.)?
The SUVmax tumor was 10.8.

What about the “SUVmean ratio tumor / muscle” value (MPC tumors; animal 2, 40‒60 min p.i.) of the same compound?
The value was 67.2.

And the SUVmean tumor (MPC tumors; animal 2, 40‒60 min p.i.)?
The SUVmean tumor was 5.61.

What about the “SUVmax ratio tumor / muscle” value (MPC tumors; animal 3, 40‒60 min p.i.) of the same compound?
The value was 78.3.

And the SUVmax tumor (MPC tumors; animal 3, 40‒60 min p.i.)?
Its SUVmax tumor is 19.7.

And the “SUVmean ratio tumor / muscle” value (MPC tumors; animal 3, 40‒60 min p.i.)?
The value was 91.2.

And the SUVmean tumor (MPC tumors; animal 3, 40‒60 min p.i.)?
The SUVmean tumor was 8.55.

What about the “SUVmax ratio tumor / muscle” value (MPC tumors; animal 4, 40‒60 min p.i.) of the same compound?
Its value is 65.2.

And the SUVmax tumor (MPC tumors; animal 4, 40‒60 min p.i.)?
The SUVmax tumor was 18.5.

What about the “SUVmean ratio tumor / muscle” value (MPC tumors; animal 4, 40‒60 min p.i.) of the same compound?
Its value is 100.

What about the SUVmean tumor (MPC tumors; animal 4, 40‒60 min p.i.) of the same compound?
The SUVmean tumor was 9.24.

What about the “SUVmax ratio tumor / muscle” value (MPC tumors; as SUVmean, mean ± SEM) of the same compound?
Its value is 59.3 ± 9.54.

And the SUVmax tumor (MPC tumors; as SUVmean, mean ± SEM)?
Its SUVmax tumor is 14.5 ± 2.73.

What about the “SUVmean ratio tumor / muscle” value (MPC tumors; as SUVmean, mean ± SEM) of the same compound?
The value was 79.6 ± 9.53.

And the “increase of average SUVmean of tumors vs control cohort” value (MTT tumors; MTT tumors, VPA 250 mg/kg, DAC 1 mg/kg, single or combination, i.p. twice at 72 h interval, DAC P < 0.05, combination P < 0.01)?
The value was 1.4 fold.

And the SUVmean tumor (MTT tumors; [64Cu]Cu-DOTA-TATE, 40‒60 min p.i., day 1 after final ET, control or VPA 250 mg/kg, DAC 1 mg/kg days −3 and 0, mean ± SEM, DAC P < 0.05, VPA+DAC P < 0.001)?
The SUVmean tumor was 0.73 ± 0.08.

And the “SUVmax ratio tumor / muscle” value (MTT tumors; animal 1, 40‒60 min p.i.)?
The value was 3.3.

What about the SUVmax tumor (MTT tumors; animal 1, 40‒60 min p.i.) of the same compound?
The SUVmax tumor was 0.69.

And the “SUVmean ratio tumor / muscle” value (MTT tumors; animal 1, 40‒60 min p.i.)?
The value was 3.20.

What about the SUVmean tumor (MTT tumors; animal 1, 40‒60 min p.i.) of the same compound?
The SUVmean tumor was 0.34.

And the “SUVmax ratio tumor / muscle” value (MTT tumors; animal 2, 40‒60 min p.i.)?
Its value is 4.72.

What about the SUVmax tumor (MTT tumors; animal 2, 40‒60 min p.i.) of the same compound?
Its SUVmax tumor is 1.41.

What about the “SUVmean ratio tumor / muscle” value (MTT tumors; animal 2, 40‒60 min p.i.) of the same compound?
Its value is 10.52.

And the SUVmean tumor (MTT tumors; animal 2, 40‒60 min p.i.)?
Its SUVmean tumor is 0.70.

What about the “SUVmax ratio tumor / muscle” value (MTT tumors; animal 3, 40‒60 min p.i.) of the same compound?
Its value is 8.25.

And the SUVmax tumor (MTT tumors; animal 3, 40‒60 min p.i.)?
The SUVmax tumor was 1.61.

What about the “SUVmean ratio tumor / muscle” value (MTT tumors; animal 3, 40‒60 min p.i.) of the same compound?
Its value is 7.63.

And the SUVmean tumor (MTT tumors; animal 3, 40‒60 min p.i.)?
Its SUVmean tumor is 0.71.

What about the “SUVmax ratio tumor / muscle” value (MTT tumors; animal 4, 40‒60 min p.i.) of the same compound?
Its value is 10.8.

And the SUVmax tumor (MTT tumors; animal 4, 40‒60 min p.i.)?
The SUVmax tumor was 1.60.

What about the “SUVmean ratio tumor / muscle” value (MTT tumors; animal 4, 40‒60 min p.i.) of the same compound?
Its value is 11.4.

And the SUVmean tumor (MTT tumors; animal 4, 40‒60 min p.i.)?
The SUVmean tumor was 0.73.

What about the “SUVmax ratio tumor / muscle” value (MTT tumors; animal 5, 40‒60 min p.i.) of the same compound?
Its value is 5.31.

What about the SUVmax tumor (MTT tumors; animal 5, 40‒60 min p.i.) of the same compound?
Its SUVmax tumor is 1.62.

What about the “SUVmean ratio tumor / muscle” value (MTT tumors; animal 5, 40‒60 min p.i.) of the same compound?
The value was 7.80.

What about the SUVmean tumor (MTT tumors; animal 5, 40‒60 min p.i.) of the same compound?
Its SUVmean tumor is 0.74.

What about the “SUVmax ratio tumor / muscle” value (MTT tumors; animal 6, 40‒60 min p.i.) of the same compound?
Its value is 5.70.

And the SUVmax tumor (MTT tumors; animal 6, 40‒60 min p.i.)?
The SUVmax tumor was 1.73.

What about the “SUVmean ratio tumor / muscle” value (MTT tumors; animal 6, 40‒60 min p.i.) of the same compound?
Its value is 9.73.

What about the SUVmean tumor (MTT tumors; animal 6, 40‒60 min p.i.) of the same compound?
The SUVmean tumor was 0.86.

What about the “SUVmax ratio tumor / muscle” value (MTT tumors; animal 7, 40‒60 min p.i.) of the same compound?
The value was 6.06.

What about the SUVmax tumor (MTT tumors; animal 7, 40‒60 min p.i.) of the same compound?
Its SUVmax tumor is 2.23.

What about the “SUVmean ratio tumor / muscle” value (MTT tumors; animal 7, 40‒60 min p.i.) of the same compound?
Its value is 9.95.

And the SUVmean tumor (MTT tumors; animal 7, 40‒60 min p.i.)?
Its SUVmean tumor is 1.06.

What about the “SUVmax ratio tumor / muscle” value (MTT tumors; as SUVmean, mean ± SEM) of the same compound?
Its value is 6.30 ± 0.94.

And the “SUVmean ratio tumor / muscle” value (MTT tumors; as SUVmean, mean ± SEM, DAC P < 0.05)?
Its value is 8.60 ± 1.04.

What about the SUVmax tumor (MTT tumors; as SUVmean, mean ± SEM, VPA+DAC P < 0.01) of the same compound?
Its SUVmax tumor is 1.55 ± 0.17.

And the “percentage of MTT responders (SUV)” value (MTT tumors; n = 7 per cohort, threshold control mean + 2×TE)?
The value was 29%.

From paper PMC9800739, “Epigenetic drugs in somatostatin type 2 receptor radionuclide theranostics and radiation transcriptomics in mouse pheochromocytoma models” (Theranostics, 2023)
